Earlier results in patent US7901689B2, “Chimeric peptides as immunogens, antibodies thereto, and methods for immunization using chimeric peptides or antibodies” (Intellect Neurosciences, Inc., priority 1999, dated 2011).
pEC50: −log10 of the molar value.

Assays:
Aβ production = settings: Knops et al., 1995, Haass et al., read-out: EC50 for inhibition of Aβ production
[1] = test system: Aβ-induced toxicity in cultured neurons; settings: Yankner et al., 1995
[2] = test system: Alzheimer's disease-like pathology in PDAPP transgenic mice; settings: Schenk et al. 1999

Compound: CO/C1=C\C(C)=C\[C@@H](C)[C@@H](O)[C@@H](C)C/C(C)=C/C=C/[C@H](OC)[C@@H]([C@@H](C)[C@@H](O)[C@H](C)[C@@]2(O)C[C@@H](O)[C@H](C)[C@@H](C(C)C)O2)OC1=O [Bafilomycin]
- pEC50 (Aβ production): ~7.30

Compound: Nc1c(/N=N/c2ccc(-c3ccc(/N=N/c4cc(S(=O)(=O)O)c5ccccc5c4N)cc3)cc2)cc(S(=O)(=O)O)c2ccccc12 [Congo Red]
- Aβ-induced toxicity in cultured neurons [1]: completely inhibits

Compound: amyloid-β: intact amyloid-β used as immunogen by Schenk et al. (1999)
- development of β-amyloid plaque formation, neuritic dystrophy and astragliosis ([2]; immunization of young animals prior to onset of neuropathologies): essentially prevented
- extent and progression of Alzheimer's disease-type neuropathologies ([2]; treatment in older animals after onset of neuropathologies): reduce the extent and progression
